Entries after “also recorded” stand apart in the source; their conditions may differ.
Legend:
[1] = Relaxivity measurements at 1.41 T; assay type: physicochemical
Method: Relaxivity measurements at 1.41 T were performed using a MiniSpec mq60 spectrometer (Bruker Analytik, Karlsruhe, Germany) operating at a resonance frequency of 60 MHz and a temperature of 37° C. The T1 relaxation times were determined using the standard inversion recovery (IR) method with a fixed relaxation delay of at least 5×T1. The variable inversion time (TI) was calculated automatically by the standard software of the MiniSpec mq60 (8 steps). The T2 measurements were done by using a Carr-Purcell-Meiboom-Gill (CPMG) pulse sequence, applying a relaxation delay of at least 5×T1.
Each relaxivity measurement was performed using three different Gd concentrations (3 concentrations between 0.05 and 2 mM). The T1 and T2 relaxation times of the example compounds 1-10 were measured in different media for example in water, fetal bovine serum (FBS, Sigma, F7524) and human plasma.
Human plasma preparation: For each experiment fresh blood was taken from a volunteer using 10 mL citrate-tubes (Sarstedt S-Monovette 02.1067.001, 10 mL, Citrate). The 10 mL citrate-tubes were carefully inverted 10 times to mix blood and anticoagulant and centrifuged for 15 minutes at 1811 g at room temperature (Eppendorf, Centrifuge 5810R).
The relaxivities ri (where i=1, 2) were calculated on the basis of the measured relaxation rates Ri in water and plasma: Ri=Ri(0)+ri[CGd], where Ri(0) represent the relaxation rate of the respective solvent and CGd the concentration of the compound normalized to the Gadolinium. The Gadolinium concentrations of the investigated solutions were verified by Inductively Coupled Plasma Mass Spectroscopy (ICP-MS Agilent 7500a, Waldbronn, Germany).

[2] = Excretion and residual organ gadolinium concentration; assay type: in vivo, male rats (Han-Wistar); settings: male rats, 0.1 mmol Gd/kg i.v.
Method: The excretion and organ distribution of Example 3 were determined in male rats (Han-Wistar, 100-110 g, n=3). The compound was administered as a sterile aqueous solution (54 mmol Gd/L) as a bolus in the tail vein of the animals. The dose was 0.1 mmol Gd/kg. Urine was collected in the following time periods 0-1 h, 1-3 h, 3-6 h, 6-24 h, 1-2 d and 2-5 d post injection and feces 0-1 d, 1-2 d and 2-5 d post injection. As a control, 3 animals were treated in the same way with Gadovist®, a low molecular weight contrast agent. On day 7 the animals were sacrificed and the following organs were excised: blood, liver, kidney, spleen, heart, lung, brain, mesenteric lymph nodes, muscle, skin, stomach, gut, bone and bone marrow. The remaining carcass was freeze dried and ground to a fine powder. The Gd concentration in the organs and the carcass was determined by ICP-MS (ICP-MS Agilent 7500a, Waldbronn, Germany). The Example 3 is excreted quickly via the kidneys. After 3 h 95.8%±3.4% of the injected dose was found in urine and 96.9%±3.7% after 5 days. About 1.4%±0.6% was excreted via the feces. Less than 0.5% of the administered dose was present in the body 7 days after the injection. The individual organs contained less than 0.03% of the injected dose, except the kidney which is the excretion organ.

[3] = Chemical stability (autoclaving at 121° C.); assay type: physicochemical; settings: 5 mmol Gd/L in 10 mM Tris-HCl buffer, pH 7.4, 121° C. for 20 min
[4] = Whole body imaging (dynamic MRI and tissue Gd concentration); assay type: in vivo, male New Zealand white rabbits; settings: rabbits
Method: The study was performed with a clinical whole body MRI equipped with body spine coil, abdomen flex coil, neck coil (1.5 T Magnetom Avanto, Siemens Healthcare, Erlangen, Germany). The study was done using male New Zealand white rabbits (weight 2.3-3.0 kg, n=8, Charles River Kisslegg). All animals were initially anesthetized using a body weight-adjusted intramuscular injection of a mixture (1+2) of xylazine hydrochloride (20 mg/mL, Rompun 2%, Bayer Vital GmbH, Leverkusen, Germany) and ketamine hydrochloride (100 mg/mL, Ketavet, Pfizer, Pharmacia GmbH, Berlin, Germany) using 1 mL/kg body weight. The continuous anesthesia of the intubated animals (endotracheal tube, Rueschelit Super Safe Clear, cuff 3.0 mm, Willy Ruesch AG, Kernen, Germany) was achieved by the intravenous injection of 0.9 mg propofol per kilogram per hour (10 mg/mL, Propofol-Lipuro 1%, B. Braun Melsungen AG, Melsungen, Germany). The continuous intravenous injection was performed using a MR infusion system (Continuum MR Infusion System, Medrad Europe B. V., A E Beek, Germany). The tracheal respiration (SV 900C, Maquet, Rastatt, Germany) was performed with 55% oxygen, forty breaths per minute and a breathing volume of 7 mL per kilogram body weight per minute.
Dynamic MRI measurements up to 22 min post injection with subsequent quantitative signal analysis (Siemens Mean Curve software (SYNGO Task Card, Siemens Healthcare, Erlangen, Germany), were performed for three different regions head and neck (brain, tongue, chops muscle, neck muscle), abdomen (spleen, liver, blood) and pelvis (extremity muscle). For the three different slice groups a 3D T1-weighted Vibe sequence was used (TR=4.74 ms, TE=2.38, flip=10°, 1:29 min). The dynamic measurements of the three slice groups (Head/Neck: 1:29 min, Abdomen: 0:49 min, Pelvis: 1:16 min) were done up to 22 min post injection: 1. Head/Neck: baseline, 1.4, 5.2, 8.9, 12.8, 16.5, 20.4 min, 2. Abdomen: baseline, 0.5, 4.3, 8.1, 11.9, 15.7, 19.5 min and 3. Pelvis: baseline, 2.9, 6.7, 10.5, 14.4, 18.1, 22.0 min. At 30 min post injection the animals were sacrificed and the Gd concentrations were measured using Inductively Coupled Plasma Mass Spectroscopy (ICP-MS Agilent 7500a, Waldbronn, Germany) in the following tissue samples: blood, brain, tongue, liver and extremity muscle. A quantitative image evaluation was performed for the 30 min time point p.i. due to the combination of the quantitative ICP-MS Gadolinium concentrations and the MRI region-of-interest analysis.

[5] = Off target activity screen (LeadProfilingScreen®, radioligand binding and enzyme assays); settings: commercial radioligand binding and enzyme assays
[6] = Gadolinium release after the addition of zinc and phosphate (transmetallation); settings: phosphate buffer pH 7.00, 2.5 mmol/L gadolinium complex, 2.5 mmol/L ZnCl2, 37° C., up to 72 h, FIG. 2
Method: The technique is based on measurement of the evolution of the water proton paramagnetic longitudinal relaxation rate in phosphate buffer (pH 7.00, 26 mmol/L, KH2PO4 Merck, Hessen, Germany) containing 2.5 mmol/L gadolinium complex and 2.5 mmol/L ZnCl2 Sigma-Aldrich, Munich, Germany). […] The mixture was vigorously stirred, and 300 μL were taken out for the relaxometric study at 0 min, 60 min, 120 min, 3 h, 4 h, 5 h, 24 h, 48 h and 72 h. The measurements were performed on a MiniSpec mq60 spectrometer (Bruker Analytik, Karlsruhe, Germany) at 60 MHz and 37° C.

SMILES: CC(C(=O)NCC(=O)NCC(CNC(=O)CNC(=O)C(C)N1CCN(CC(=O)[O-])CCN(CC(=O)[O-])CCN(CC(=O)[O-])CC1)(CNC(=O)CNC(=O)C(C)N1CCN(CC(=O)[O-])CCN(CC(=O)[O-])CCN(CC(=O)[O-])CC1)CNC(=O)CNC(=O)C(C)N1CCN(CC(=O)[O-])CCN(CC(=O)[O-])CCN(CC(=O)[O-])CC1)N1CCN(CC(=O)[O-])CCN(CC(=O)[O-])CCN(CC(=O)[O-])CC1.[Gd+3].[Gd+3].[Gd+3].[Gd+3] (centres unmarked) [Example 3, Tetragadolinium [4,10-bis(carboxylatomethyl)-7-{3,6,12,15-tetraoxo-16-[4,7,10-tris-(carboxylatomethyl)-1,4,7,10-tetraazacyclododecan-1-yl]-9,9-bis({[({2-[4,7,10-tris-(carboxylatomethyl)-1,4,7,10-tetraazacyclododecan-1-yl]propanoyl}amino)acetyl]-amino}methyl)-4,7,11,14-tetraazaheptadecan-2-yl}-1,4,7,10-tetraazacyclododecan-1-yl]acetate]
- r1 FBS ([1]; fetal bovine serum, 1.41 T, 37° C., normalized to Gd): 11.5 L/mmol/s
- r1 human plasma ([1]; human plasma, 1.41 T, 37° C., normalized to Gd): 11.8 L/mmol/s
- relaxivity relative to reference compound 1 ([1]; see Example A): approximately 2 fold
- r1 water ([1]; water, 1.41 T, 37° C., normalized to Gd): 10.1 L/mmol/s
- Feces excretion 0-1 d post injection [2]: 1.13 ± 0.62% Dose
- Feces excretion 1-2 d post injection [2]: 0.10 ± 0.02% Dose
- Feces excretion 2-5 d post injection [2]: 0.13 ± 0.01% Dose
- Total recovery [2]: 98.8 ± 3.1% Dose
- Urine excretion 0-1 h post injection [2]: 90.36 ± 4.4% Dose
- Urine excretion 1-3 h post injection [2]: 5.43 ± 1.04% Dose
- Urine excretion 1-2 d post injection [2]: 0.14 ± 0.01% Dose
- Urine excretion 2-5 d post injection [2]: 0.34 ± 0.03% Dose
- Urine excretion 3-6 h post injection [2]: 0.46 ± 0.38% Dose
- Urine excretion 6-24 h post injection [2]: 0.17 ± 0.02% Dose
- administered dose present in the body 7 days after the injection [2]: Less than 0.5%
- excreted via the feces [2]: About 1.4%
- Σ organs and carcass 7 d post injection [2]: 0.49 ± 0.01% Dose
- injected dose in the individual organs (except the kidney) ([2]; 7 days): less than 0.03%
- injected dose found in urine after 3 h ([2]; cumulative): 95.8%
- injected dose found in urine after 5 days ([2]; cumulative): 96.9%
- appearance of the solution after autoclaving [3]: still clear and colorless
- slope of the linear regression between tissue gadolinium concentration and MRI signal change ([4]; tissues 30 min p.i., FIGS. 8A and 8B): 1.9
- time course of contrast enhancements / signal changes ([4]; various tissues, up to 22 min post injection, vs Reference compound 1, FIG. 7): No differences in the time course of signal changes were observed; also recorded: no differences in the time course of contrast enhancements were observed
- contrast enhancement (amplitude) ([4]; various tissues, vs Reference compound 1, FIG. 7): higher compared to that of Reference compound 1
- off target activity [5]: no critical finding
- stability against transmetallation (relative longitudinal relaxation rate R1p(t)/R1p(0) versus time) [6]: comparable to the high stability macrocyclic Reference compound 1 (Gadovist®); also recorded: comparable to the high stability of Reference compound 1 (Gadovist®)

— patent US11491245B2, “Gadolinium chelate compounds for use in magnetic resonance imaging” (BAYER PHARMA AKTIENGESELLSCHAFT, priority 2015, dated 2022)
